Laboratory results taken from article PMC6274316 (Molecules, 2016).
“Also recorded” adds a separate entry of the source. Marks after values point to notes of the source that are not given here.

Assays:
[1] = tested on: ADP-induced platelet aggregation; assay: Inhibition of ADP-induced platelet aggregation in rats ex vivo (Born's method); parameters: species or system rat; conditions: for Platelet Aggregation (%): male Wistar rats, ADP 1.0 μM, mean ± SD n = 6; for antiplatelet effect (in words): rat ex vivo
Procedure: Two hours after administration, rats were anesthetized using sodium pentobarbital and blood samples collected from the abdominal aorta for platelet aggregation tests using Born’s method. ADP (1.0 μM, Sigma-Aldrich, Co., St. Louis, MO, USA) was used as agonist for platelet aggregation. Platelet aggregation was measured using a coagulation analyzer (NJ4, Beijing Precil Instrument Company, Beijing, China).

[2] = rat, 1000 ng/mL
Procedure: Blood samples (100 μL) were collected every 10 min over 120 min, mixed with methanol (950 μL), water (50 μL) and an internal standard (IS) solution (diazepam, 100 μL, 100 ng/mL) and centrifuged at low temperature at 13,000 rpm. […] This was carried out using an Agilent 1100 Series HPLC system (degasser, pump, auto sampler, and column oven, Agilent Technologies, Santa Clara, CA, USA) coupled to an AB SCIEX Qtrap 2000 mass spectrometer (Applied Biosystems Sciex, Ottawa, ON, Canada) with an ESI source operated in the positive ion mode. Data acquisition and integration were performed by Analyst software (version 1.3.2, Applied Biosystems Sciex, Ottawa, ON, Canada). Chromatography was performed on a ZORBAX Extend-C18 column (150 mm × 4.6 mm i.d., 5 μm, Agilent Technologies, Santa Clara, CA, USA) maintained at 40 °C using methanol and 0.1% aqueous formic acid (20:80, v/v) as mobile phase delivered at a flow rate of 1.0 mL/min. The injection volume was 20 μL. A 50:50 split of the column eluent was made by means of a T-piece. The mass spectrometer was operated at unit resolution for Q1 and Q3 in the multiple reaction monitoring (MRM) mode with a dwell time of 200 ms per MRM channel. […] QC samples were prepared independently at concentrations of 3, 30, and 800 ng/mL in the same way. […]

esterases = conditions: cited from earlier work
CYP2C19 = conditions: cited from earlier work
[3] = rat; cited from earlier work
[4] = ex vivo 2 h after oral dose 7.8 μmol/kg

Row | SMILES | Platelet Aggregation (%) [1, 4] [%] | antiplatelet effect (in words) ([1]; oral dose 7.8 μmol/kg) | melting point [°C] | also measured
1 | O=S(=O)(O)O.[2H]C([2H])([2H])OC(=O)[C@H](c1ccccc1Cl)N1CCc2sccc2C1 [Compound 8, Methyl-d3 (S)-2-(2-chlorophenyl)-2-(6,7-dihydrothieno[3,2-c]pyridin-5(4H)-yl)acetate bisulfate] | 36.6 ± 6.6 | potent inhibitors | – | –
2 | [2H]C([2H])([2H])OC(=O)[C@H](c1ccccc1Cl)N1CCC2SC(=O)C=C2C1 (stereo partly drawn) [Compound 9, Methyl-d3 (2S)-2-(2-chlorophenyl)-2-(2-oxo-2,6,7,7a-tetrahydrothieno[3,2-c]pyridin-5(4H)-yl)acetate] | 21.2 ± 7.6 | potent antiplatelet agent | – | –
3 | [2H]C([2H])([2H])OC(=O)[C@H](c1ccccc1Cl)N1CCc2sc(OC(C)=O)cc2C1 [Compound 10a, Methyl-d3 (S)-2-(2-acetoxy-6,7-dihydrothieno[3,2-c]pyridin-5(4H)-yl)-2-(2chlorophenyl)acetate] | 17.3 ± 8.2 | potent inhibitors; also recorded: potent antiplatelet activity | – | –
4 | Cl.[2H]C([2H])([2H])OC(=O)[C@H](c1ccccc1Cl)N1CCc2sc(OC(=O)CC)cc2C1 [Compound 10b, (S)-5-(1-(2-Chlorophenyl)-2-(methoxy-d3)-2-oxoethyl)-4,5,6,7-tetrahydrothieno[3,2-c]pyridin-2-yl propionate hydrochloride] | 24.9 ± 9.7 | potent antiplatelet activity | – | –
5 | [2H]C([2H])([2H])OC(=O)[C@H](c1ccccc1Cl)N1CCc2sc(OC(=O)CCC)cc2C1 [Compound 10c, (S)-5-(1-(2-Chlorophenyl)-2-(methoxy-d3)-2-oxoethyl)-4,5,6,7-tetrahydrothieno[3,2-c]pyridin-2-yl butyrate] | 29.9 ± 9.5 | potent antiplatelet activity | – | –
6 | Cl.[2H]C([2H])([2H])OC(=O)[C@H](c1ccccc1Cl)N1CCc2sc(OC(=O)C(C)C)cc2C1 [Compound 10d, (S)-5-(1-(2-Chlorophenyl)-2-(methoxy-d3)-2-oxoethyl)-4,5,6,7-tetrahydrothieno[3,2-c]pyridin-2-yl isobutyrate hydrochloride] | 36.3 ± 4.5 | potent antiplatelet activity | 146.7 to 149.9 | –
7 | [2H]C([2H])([2H])OC(=O)[C@H](c1ccccc1Cl)N1CCc2sc(OC(=O)C3CC3)cc2C1 [Compound 10e, (S)-5-(1-(2-Chlorophenyl)-2-(methoxy-d3)-2-oxoethyl)-4,5,6,7-tetrahydrothieno[3,2-c]pyridin-2-yl cyclopro-panecarboxylate] | 24.6 ± 10.0 | anomalously potent; also recorded: potent antiplatelet activity | – | –
8 | [2H]C([2H])([2H])OC(=O)[C@H](c1ccccc1Cl)N1CCc2sc(OC(=O)C(C)(C)C)cc2C1 [Compound 10f, (S)-5-(1-(2-Chlorophenyl)-2-(methoxy-d3)-2-oxoethyl)-4,5,6,7-tetrahydrothieno[3,2-c]pyridin-2-yl pivalate] | 44.7 ± 4.1 | – | 105.4 to 107.1 | –
9 | [2H]C([2H])([2H])OC(=O)[C@H](c1ccccc1Cl)N1CCc2sc(OC(=O)CCCCC)cc2C1 [Compound 10g, (S)-5-(1-(2-Chlorophenyl)-2-(methoxy-d3)-2-oxoethyl)-4,5,6,7-tetrahydrothieno[3,2-c]pyridin-2-yl hexanoate] | 35.2 ± 7.7 | potent antiplatelet activity | 49.4 to 52.7 | –
10 | [2H]C([2H])([2H])OC(=O)[C@H](c1ccccc1Cl)N1CCc2sc(OC(=O)C(C)(C)CC)cc2C1 [Compound 10h, (S)-5-(1-(2-Chlorophenyl)-2-(methoxy-d3)-2-oxoethyl)-4,5,6,7-tetrahydrothieno[3,2-c]pyridin-2-yl 2,2-dimethylbutanoate] | 48.5 ± 6.7 | – | 99.4 to 100.3 | –
11 | [2H]C([2H])([2H])OC(=O)[C@H](c1ccccc1Cl)N1CCc2sc(OC(=O)CCCCCCCCCCC)cc2C1 [Compound 10i, (S)-5-(1-(2-Chlorophenyl)-2-(methoxy-d3)-2-oxoethyl)-4,5,6,7-tetrahydrothieno[3,2-c]pyridin-2-yl laurate] | 49.7 ± 4.0 | – | 35.8 to 37.6 | –
12 | [2H]C([2H])([2H])OC(=O)[C@H](c1ccccc1Cl)N1CCc2sc(OC(=O)C=Cc3ccccc3)cc2C1 [Compound 10j, (S)-5-(1-(2-Chlorophenyl)-2-(methoxy-d3)-2-oxoethyl)-4,5,6,7-tetrahydrothieno[3,2-c]pyridin-2-yl cinnamate] | 56.4 ± 6.9 | – | 121.7 to 123.1 | –
13 | Cl.[2H]C([2H])([2H])OC(=O)[C@H](c1ccccc1Cl)N1CCc2sc(OC(=O)c3ccccc3)cc2C1 [Compound 10k, (S)-5-(1-(2-Chlorophenyl)-2-(methoxy-d3)-2-oxoethyl)-4,5,6,7-tetrahydrothieno[3,2-c]pyridin-2-yl benzoate hydrochloride] | 43.6 ± 9.5 | – | – | –
14 | [2H]C([2H])([2H])OC(=O)[C@H](c1ccccc1Cl)N1CCc2sc(OC(=O)c3ccccc3C(F)(F)F)cc2C1 [Compound 10l, (S)-5-(1-(2-Chlorophenyl)-2-(methoxy-d3)-2-oxoethyl)-4,5,6,7-tetrahydrothieno[3,2-c]pyridin-2-yl 2-(trifluoromethyl)benzoate] | 49.2 ± 4.6 | – | – | –
15 | [2H]C([2H])([2H])OC(=O)[C@H](c1ccccc1Cl)N1CCc2sc(OC(=O)c3cccnc3)cc2C1 [Compound 10m, (S)-5-(1-(2-Chlorophenyl)-2-(methoxy-d3)-2-oxoethyl)-4,5,6,7-tetrahydrothieno[3,2-c]pyridin-2-yl nicotinate] | 37.4 ± 6.7 | strong potency; also recorded: potent antiplatelet activity | 92.1 to 94.8 | –
16 | [2H]C([2H])([2H])OC(=O)[C@@H](c1ccccc1Cl)N1CCc2sc(OC(C)=O)cc2C1 [Compound R-10a, Methyl-d3 (R)-2-(2-acetoxy-6,7-dihydrothieno[3,2-c]pyridin-5(4H)-yl)-2-(2chlorophenyl)acetate] | 57.4 ± 5.0 | almost inactive | – | –
17 | COC(=O)[C@H](c1ccccc1Cl)N1CCc2sccc2C1 [clopidogrel, Clopidogrel] | 59.8 ± 8.4 | low activity | – | Platelet Aggregation (%) ([1]; ex vivo 2 h after oral dose 78 μmol/kg (clopidogrel bisulfate, active control)): 15.8 ± 8.0 ^b %; antiplatelet effect (in words) ([1]; oral dose 78 μmol/kg): strong inhibitory effect; time after which concentration was below the limit of detection [2]: 70 min; proportion hydrolyzed by esterases to inactive clopidogrel acid (esterases): 85%; proportion of an oral dose metabolized to inactive metabolites (esterases): more than 90%; contribution of CYP2C19 to the first step (to 2-oxoclopidogrel) (CYP2C19): 44.9%; contribution of CYP2C19 to the second step (2-oxoclopidogrel to AM) (CYP2C19): 20.6%
18 | COC(=O)[C@H](c1ccccc1Cl)N1CCc2sc(OC(C)=O)cc2C1 [vicagrel, reference compound] | 20.0 ± 9.1 | potent inhibitors | – | level of AM relative to clopidogrel [3]: four-fold
